Reference: ChEMBL document CHEMBL4011597, “Synthesis, screening and docking of fused pyrano[3,2-d]pyrimidine derivatives as xanthine oxidase inhibitor” (Eur J Med Chem, 2017)

How the values were obtained:
[1] = molecular target: T1, Xanthine dehydrogenase/oxidase (Bos taurus, UniProt P80457); assay: Inhibition of bovine xanthine oxidase assessed as reduction in uric acid formation at 10 uM using xanthine as substrate pretreated for 5 mins followed by substrate addition measured by UV-vis spectrophotometric method relative to control; details: cattle
T1 sequence (P80457 whole entry): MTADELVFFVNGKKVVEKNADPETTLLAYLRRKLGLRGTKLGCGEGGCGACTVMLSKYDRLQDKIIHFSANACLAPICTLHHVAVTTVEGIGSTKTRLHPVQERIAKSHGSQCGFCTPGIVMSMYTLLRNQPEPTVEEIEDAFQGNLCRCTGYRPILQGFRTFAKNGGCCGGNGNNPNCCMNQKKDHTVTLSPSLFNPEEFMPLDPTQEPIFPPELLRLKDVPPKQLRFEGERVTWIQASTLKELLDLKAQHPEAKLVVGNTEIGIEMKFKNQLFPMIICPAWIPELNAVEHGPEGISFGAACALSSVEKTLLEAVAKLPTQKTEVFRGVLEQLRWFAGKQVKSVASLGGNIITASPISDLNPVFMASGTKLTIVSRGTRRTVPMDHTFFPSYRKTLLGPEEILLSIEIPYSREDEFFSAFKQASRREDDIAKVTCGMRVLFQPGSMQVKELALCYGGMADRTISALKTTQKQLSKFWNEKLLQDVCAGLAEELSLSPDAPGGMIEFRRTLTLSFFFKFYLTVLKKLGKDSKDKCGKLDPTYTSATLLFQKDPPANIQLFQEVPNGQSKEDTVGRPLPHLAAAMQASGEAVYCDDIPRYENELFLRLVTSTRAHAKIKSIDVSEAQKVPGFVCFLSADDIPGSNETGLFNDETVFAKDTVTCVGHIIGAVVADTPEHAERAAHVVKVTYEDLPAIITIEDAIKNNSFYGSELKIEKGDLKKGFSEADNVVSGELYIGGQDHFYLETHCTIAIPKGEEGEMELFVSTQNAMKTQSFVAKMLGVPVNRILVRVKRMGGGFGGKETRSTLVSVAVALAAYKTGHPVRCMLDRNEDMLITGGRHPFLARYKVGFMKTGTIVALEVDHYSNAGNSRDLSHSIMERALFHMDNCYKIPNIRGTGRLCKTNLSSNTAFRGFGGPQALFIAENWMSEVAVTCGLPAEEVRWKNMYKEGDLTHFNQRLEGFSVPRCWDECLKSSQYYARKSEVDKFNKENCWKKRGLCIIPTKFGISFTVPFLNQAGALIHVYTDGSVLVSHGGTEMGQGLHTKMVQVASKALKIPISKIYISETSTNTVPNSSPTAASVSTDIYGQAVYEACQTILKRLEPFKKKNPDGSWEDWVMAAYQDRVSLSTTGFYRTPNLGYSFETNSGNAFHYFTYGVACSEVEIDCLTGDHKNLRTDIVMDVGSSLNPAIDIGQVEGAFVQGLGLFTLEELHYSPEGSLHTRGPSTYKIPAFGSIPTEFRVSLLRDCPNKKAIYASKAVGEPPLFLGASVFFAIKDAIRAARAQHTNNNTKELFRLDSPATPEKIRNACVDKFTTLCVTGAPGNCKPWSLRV

[2] = molecular target: T1, Xanthine dehydrogenase/oxidase; assay: Inhibition of bovine xanthine oxidase assessed as reduction in uric acid formation at 1 uM using xanthine as substrate pretreated for 5 mins followed by substrate addition measured by UV-vis spectrophotometric method relative to control; details: cattle
[3] = molecular target: T1, Xanthine dehydrogenase/oxidase; assay: Inhibition of bovine xanthine oxidase assessed as reduction in uric acid formation using xanthine as substrate pretreated for 5 mins followed by substrate addition measured by UV-vis spectrophotometric method
[4] = molecular target: T1, Xanthine dehydrogenase/oxidase; assay: Inhibition of bovine xanthine oxidase assessed as reduction in uric acid formation at 100 uM using xanthine as substrate pretreated for 5 mins followed by substrate addition measured by UV-vis spectrophotometric method relative to control; details: cattle

| Structure (SMILES) | inhibition at 10 µM [1] | inhibition at 1 µM [2] | IC50 [3] | inhibition at 100 µM [4] |
| --- | --- | --- | --- | --- |
| COc1ccc(Nc2ncnc3c2C(c2ccc(Cl)cc2)C2=C(CCCC2=O)O3)cc1 (centres undefined) | 34.5% | 22% | 55 µM | 69.4% |
| COc1ccc(Nc2ncnc3c2C(c2cccc([N+](=O)[O-])c2)c2c(c(=O)oc4ccccc24)O3)cc1 (centres undefined) | 31.5% | 20.2% | 65 µM | 63.6% |
| COc1ccc(Nc2ncnc3c2C(c2cccc(C)c2)c2c(c(=O)oc4ccccc24)O3)cc1 (centres undefined) | 39.1% | 28.7% | 37 µM | 78.2% |
| COc1ccc(Nc2ncnc3c2C(c2ccc(O)c(O)c2)C2=C(CCCC2=O)O3)cc1 (centres undefined) | 56.5% | 27.3% | 8.5 µM | 93.8% |
| COc1ccc(Nc2ncnc3c2C(c2ccccc2)c2c(c(=O)oc4ccccc24)O3)cc1 (centres undefined) | 36.4% | 25.1% | 40 µM | 72.8% |
| COc1ccc(Nc2ncnc3c2C(c2cccc(O)c2)c2c(c(=O)oc4ccccc24)O3)cc1 (centres undefined) | 39.5% | 28.5% | 35 µM | 81.3% |
| COc1ccc(Nc2ncnc3c2C(c2cccc(Cl)c2)C2=C(CCCC2=O)O3)cc1 (centres undefined) | 34.6% | 29.2% | 52 µM | 70.2% |
| COc1ccc(Nc2ncnc3c2C(c2ccc(OC)c(OC)c2)c2c(n[nH]c2C)O3)cc1 (centres undefined) | 31.4% | 23.6% | 64 µM | 63.7% |
| COc1ccc(Nc2ncnc3c2C(c2ccc(O)c(OC)c2)c2c(c(=O)oc4ccccc24)O3)cc1 (centres undefined) | 47.2% | 33.2% | 15 µM | 92.3% |
| COc1ccc(Nc2ncnc3c2C(c2ccc([N+](=O)[O-])cc2)C2=C(CCCC2=O)O3)cc1 (centres undefined) | 31.5% | 20% | 67 µM | 63.5% |
| COc1ccc(Nc2ncnc3c2C(c2ccc(F)cc2)c2c(c(=O)oc4ccccc24)O3)cc1 (centres undefined) | 35.1% | 24.5% | 50 µM | 70.2% |
| COc1ccc(Nc2ncnc3c2C(c2ccc(OC)cc2)c2c(c(=O)oc4ccccc24)O3)cc1 (centres undefined) | 43.7% | 32.4% | 24 µM | 85.3% |
| COc1ccc(Nc2ncnc3c2C(c2ccc(Br)cc2)C2=C(CCCC2=O)O3)cc1 (centres undefined) | 33.5% | 23.1% | 58 µM | 67% |
| COc1ccc(Nc2ncnc3c2C(c2ccc(Br)cc2)c2c(c(=O)oc4ccccc24)O3)cc1 (centres undefined) | 32.4% | 22.2% | 60 µM | 65.8% |
| COc1ccc(Nc2ncnc3c2C(c2ccc(OC)c(OC)c2)c2c(c(=O)oc4ccccc24)O3)cc1 (centres undefined) | 48% | 36.7% | 17 µM | 94% |
| COc1ccc(Nc2ncnc3c2C(c2ccc(Cl)cc2)c2c(c(=O)oc4ccccc24)O3)cc1 (centres undefined) | 33.5% | 21.3% | 56 µM | 67.2% |
| COc1ccc(Nc2ncnc3c2C(c2cc(OC)c(OC)c(OC)c2)c2c(c(=O)oc4ccccc24)O3)cc1 (centres undefined) | 37.2% | 26.2% | 42 µM | 74.5% |
| COc1ccc(Nc2ncnc3c2C(c2cccc(Cl)c2)c2c(c(=O)oc4ccccc24)O3)cc1 (centres undefined) | 34.5% | 23.2% | 54 µM | 69.6% |

The next lines start with the values.

| inhibition at 10 µM [1] | inhibition at 1 µM [2] | IC50 [3] | inhibition at 100 µM [4] | Structure (SMILES) |
| --- | --- | --- | --- | --- |
| 31.6% | 23.5% | 68 µM | 60.6% | COc1ccc(Nc2ncnc3c2C(c2ccc(O)c(O)c2)c2c(n[nH]c2C)O3)cc1 (centres undefined) |
| 42.4% | 30.5% | 28 µM | 84.8% | COc1ccc(Nc2ncnc3c2C(c2ccc(O)cc2)C2=C(CCCC2=O)O3)cc1 (centres undefined) |
| 43.5% | 32.3% | 25 µM | 87.4% | COc1ccc(Nc2ncnc3c2C(c2ccc(OC)cc2)C2=C(CCCC2=O)O3)cc1 (centres undefined) |
| 35.5% | 27.1% | 50 µM | 71.1% | COc1ccc(Nc2ncnc3c2C(c2ccc(F)cc2)C2=C(CCCC2=O)O3)cc1 (centres undefined) |
| 60% | 30.3% | 7 µM | 95% | COc1ccc(Nc2ncnc3c2C(c2ccc(O)c(OC)c2)C2=C(CCCC2=O)O3)cc1 (centres undefined) |
| 57.5% | 29.3% | 8 µM | 94.2% | COc1ccc(Nc2ncnc3c2C(c2ccc(OC)c(OC)c2)C2=C(CCCC2=O)O3)cc1 (centres undefined) |
| 41.2% | 30.9% | 30 µM | 82.4% | COc1ccc(Nc2ncnc3c2C(c2ccc(O)cc2)c2c(c(=O)oc4ccccc24)O3)cc1 (centres undefined) |
| 37.5% | 29.1% | 40 µM | 75.4% | COc1ccc(Nc2ncnc3c2C(c2ccccc2)C2=C(CCCC2=O)O3)cc1 (centres undefined) |
| 43.2% | 34.8% | 24 µM | 86.5% | COc1ccc(Nc2ncnc3c2C(c2ccccc2OC)C2=C(CCCC2=O)O3)cc1 (centres undefined) |
| 40.2% | 31% | 35 µM | 80.5% | COc1ccc(Nc2ncnc3c2C(c2cccc(C)c2)C2=C(CCCC2=O)O3)cc1 (centres undefined) |
| 30.5% | 22.2% | 64 µM | 61.9% | COc1ccc(Nc2ncnc3c2C(c2ccc([N+](=O)[O-])cc2)c2c(c(=O)oc4ccccc24)O3)cc1 (centres undefined) |
| 41.1% | 30.2% | 29 µM | 83.6% | COc1ccc(Nc2ncnc3c2C(c2ccccc2OC)c2c(c(=O)oc4ccccc24)O3)cc1 (centres undefined) |
| 32.7% | 21.9% | 60 µM | 64.2% | COc1ccc(Nc2ncnc3c2C(c2cccc([N+](=O)[O-])c2)C2=C(CCCC2=O)O3)cc1 (centres undefined) |
